In patent US11492347B2 (ENYO PHARMA, priority 2018, dated 2022):

These compounds were tested on H1N1 (influenza A/New Caledonia/20/99) (assay: microbe, parasite or virus in culture). Conditions: H1N1, A549, 48 h.
Assay type: cell-based

Compared with `COC1CN(c2ccc(C(=O)Nc3sc4c(c3C(=O)O)C(C)(C)CC4)cc2)C1` [Compound #146, 2-[[4-(3-Methoxyazetidin-1-yl)benzoyl]amino]-4,4-dimethyl-5,6-dihydrocyclopenta[b]thiophene-3-carboxylicacid], `COC1CN(c2ccc(C(=O)Nc3sc4c(c3C(=O)O)C(C)CC(C)(C)C4)cc2)C1` (stereo not drawn) [Compound #153, 2-[[4-(3-Methoxyazetidin-1-yl)benzoyl]amino]-4,6,6-trimethyl-5,7-dihydro-4H-benzothiophene-3-carboxylic acid] is 5.9-fold lower in IC50: 83 nM for the first, 14 nM for the second.

`CC1(C)Cc2c(sc(NC(=O)c3ccc(N4CC(F)(F)C4)cc3)c2C(=O)O)C(C)(C)C1` [Compound #148, 2-[[4-(3,3-Difluoroazetidin-1-yl)benzoyl]amino]-5,5,7,7-tetramethyl-4,6-dihydrobenzothiophene-3-carboxylic acid] and `CCOC1CN(c2ccc(C(=O)Nc3sc4c(c3C(=O)O)CC(C)(C)CC4(C)C)cc2)C1` [Compound #156, 2-[[4-(3-Ethoxyazetidin-1-yl)benzoyl]amino]-5,5,7,7-tetramethyl-4,6-dihydrobenzothiophene-3-carboxylic acid] are within 1.5-fold of each other in IC50: 2.6 nM for the first, 2 nM for the second.

`CC1(C)Cc2c(sc(NC(=O)c3ccc(NC4CCCCC4)cc3)c2C(=O)O)C(C)(C)C1` [Compound #149, 2-[[4-(Cyclohexylamino)benzoyl]amino]-5,5,7,7-tetramethyl-4,6-dihydrobenzothiophene-3-carboxylic acid] and `COC1CCN(c2ccc(C(=O)Nc3sc4c(c3C(=O)O)CC(C)(C)CC4(C)C)cc2)CC1` [Compound #155, 2-[[4-(4-Methoxy-1-piperidyl)benzoyl]amino]-5,5,7,7-tetramethyl-4,6-dihydrobenzothiophene-3-carboxylic acid] are within 1.5-fold of each other in IC50: 7.1 nM for the first, 10 nM for the second.

First: COCCN(C)c1ccc(C(=O)Nc2sc3c(c2C(=O)O)CC(C)(C)CC3(C)C)cc1 [Compound #150, 2-[[4-[2-Methoxyethyl(methyl)amino]benzoyl]amino]-5,5,7,7-tetramethyl-4,6-dihydrobenzothiophene-3-carboxylic acid]
Second: CN(CC1CCOCC1)c1ccc(C(=O)Nc2sc3c(c2C(=O)O)CC(C)(C)CC3(C)C)cc1 [Compound #152, 5,5,7,7-Tetramethyl-2-[[4-[methyl(tetrahydropyran-4-ylmethyl)amino]benzoyl]amino]-4,6-dihydrobenzothiophene-3-carboxylicacid]
The IC50 of the first is 7.8-fold higher: 3.9 nM for the first, 0.5 nM for the second.

Compared with `CC1(C)CCc2sc(NC(=O)c3ccc(Br)cc3)c(C(=O)O)c2C1` [Compound #154, 2-[(4-Bromobenzoyl)amino]-5,5-dimethyl-6,7-dihydro-4H-benzothiophene-3-carboxylic acid], `CC1(C)CCc2sc(NC(=O)c3ccc(Br)cc3)c(C(=O)O)c21` [Compound #158, 2-[(4-Bromobenzoyl)amino]-4,4-dimethyl-5,6-dihydro cyclopenta[b]thiophene-3-carboxylic acid] is 11-fold higher in IC50: 30 nM for the first, 320 nM for the second. The first is the more potent here.

Going from `CC1CC(C)(C)Cc2sc(NC(=O)c3ccc(NCC4CCOCC4)cc3)c(C(=O)O)c21` (stereo not drawn) [Compound #157, 4,6,6-Trimethyl-2-[[4-(tetrahydropyran-4-ylmethylamino)benzoyl]amino]-5,7-dihydro-4H-benzothiophene-3-carboxylic acid] to `CC1(C)CCc2sc(NC(=O)c3ccc(N4CCOCC4)cc3)c(C(=O)O)c2C1` [Compound #159, 5,5-Dimethyl-2-[(4-morpholinobenzoyl)amino]-6,7-dihydro-4H-benzothiophene-3-carboxylic acid], the IC50 rises from 5 nM to 18 nM (3.6-fold). The first is the more potent here.
